Columns and labels:
Type in all cases: cell-based
NS0 Null Cell Line [1] = test: Cell doubling time of NS0 Null Cell Line at vial thaw with NAC-supplemented medium; conditions: for cell doubling time at vial thaw: control medium 67.8 hours
Excerpt: (§1) To investigate the role of N-Acetylcysteine on thaw recovery, cell viability, cell growth and cell doubling time on subsequent passaging, the following methods were used. Three different NS0 cell lines cultured in one to three different Animal Protein Free (“APF”) media were investigated to study the effect of N-acetylcysteine (NAC) on cell growth at vial thaw and during routine cell expansion. One of the cell lines was a NS0 null host cell that had not been transformed to express a recombinant protein (NS0 Null Cell Line). The other two NS0 cell lines were engineered to express a therapeutic recombinant protein: NS0 Cell Line 1 (expressing an anti-IL-9 antibody) and NS0 Cell Line 2 (expressing BAK502G9, an anti-IL-13 antibody). NS0 Cell Line 1 was thawed and expanded in two different APF media (APF Medium 1 or APF Medium 2) supplemented with various concentrations of NAC ranging from 1.5 mM to 2.5 mM. NS0 Cell Line 2 was thawed and expanded in three different APF media (APF Medium 1, APF Medium 2 or a commercially available NS0 cell culture media (CD Hybridoma+cholesterol from Invitrogen/Gibco)) supplemented with NAC ranging from 0.5 mM to 2.5 mM, while the untransformed host cell line (NS0 Null Cell Line) was thawed in APF medium 2 supplemented with NAC ranging from 0.5 mM to 1.5 mM. NAC was obtained from Sigma and was either added to the medium directly or dissolved in water at 100 mM concentration before adding to the media at the appropriate concentration. All three media (APF Medium 1, APF Medium 2, and CD Hybridoma+cholesterol from Invitrogen/Gibco) supported growth of NS0 cells, as illustrated in FIGS. 1-12. APF Medium 1 and APF Medium 2 contain standard cell culture components including: amino acids, vitamins, lipids, sugar, small peptides, pH buffer, trace metals, inorganic salts, nucleotides, nucleotide precursors, surfactants, reducing agents, cholesterol, lipids and antioxidants.
(§2) Prior to vial thaw, media were temperature and pH equilibrated for a minimum of 1 hour in a 6% CO2 incubator at 37° C. with agitation at 120 rpm on a shaker. Vials were thawed using a 37° C. water bath and the entire contents were transferred equilibrated media. A cell count using Beckman Vi-Cell (an image-based cell viability analyzer) was obtained to measure the viable cell density and viability.
(§3) Viable cell densities during the first 3 to 4 days (i.e. exponential growth phase) at each passage were used to calculate population doubling times during both the first few days after the vial thaw while the cells were recovering from the thaw and during subsequent cell passages when the cells have fully recovered and reached a consistent doubling time from passage to passage.
NS0 cells (i.e. NS0 Null Cell Line) not transfected with a heterologous protein were in a frozen stock. Frozen NS0 Null Cell Line cells were thawed in animal-protein free (APF) medium (i.e. APF media 2) supplemented with various concentrations of N-acetylcysteine (NAC) and viable cell density during exponential growth phase was used to calculate average cell doubling time as described in Example 1.

[2] = tested on: NS0 Cell Line 1 (expressing an anti-IL-9 antibody); test: Cell doubling time of NS0 Cell Line 1 at vial thaw with NAC-supplemented medium; conditions: for average cell doubling time at vial thaw: control medium 57.6 hours; for cell doubling time at vial thaw: control medium 109.8 hours
Excerpt: as §1, §2, §3
NS0 cells (i.e. NS0 Cell Line 1) expressing an anti-IL-9 monoclonal antibody were in a frozen stock. Frozen NS0 Cell Line 1 cells were thawed in animal-protein free (APF) medium (i.e. APF media 1 or APF media 2) supplemented with various concentrations of N-acetylcysteine (NAC) and viable cell density during exponential growth phase was used to calculate average cell doubling time as described above.

NS0 Null Cell Line [3] = test: Cell doubling time of NS0 Null Cell Line during cell expansion with NAC-supplemented medium; conditions: for Average Doubling Time: APF Medium 2, during expansion, 0.0 mM control 31.9
Excerpt: as §1, §3
NS0 cells (i.e. NS0 Null Cell Line) not transfected with a heterologous protein were cultured in animal-protein free (APF) medium (i.e. APF media 2). The cells used in the vial thaw studies described in Example 3 were split into the same media (APF media 2 supplemented with various concentrations of N-acetylcysteine) and allowed to recover in subsequent passages until a consistent doubling time from passage to passage was achieved. Viable cell density during exponential growth phase after recovery was used to calculate average cell doubling time as described in Example 1.

[4] = tested on: NS0 Cell Line 1 (expressing an anti-IL-9 antibody); test: Cell doubling time of NS0 Cell Line 1 during cell expansion with NAC-supplemented medium
Excerpt: as §1, §3
NS0 cells (i.e. NS0 Cell Line 1) expressing an anti-IL-9 monoclonal antibody were cultured in animal-protein free (APF) medium (i.e. APF media 1 or APF media 2). The cells used in the vial thaw studies described in Example 1 were split into the same media (APF media 1 or APF media 2 supplemented with various concentrations of N-acetylcysteine) and allowed to recover in subsequent passages until a consistent doubling time from passage to passage was achieved. Viable cell density during exponential growth phase after recovery was used to calculate average cell doubling time as described in Example 1.

[5] = tested on: NS0 Cell Line 2 (expressing BAK502G9, an anti-IL-13 antibody); test: Cell doubling time of NS0 Cell Line 2 at vial thaw with NAC-supplemented medium
Excerpt: as §1, §2, §3
NS0 cells (i.e. NS0 Cell Line 2) expressing a monoclonal antibody (i.e. BAK502G9, an anti-IL-13 antibody) were in a frozen stock. Frozen NS0 Cell Line 2 cells were thawed in animal-protein free (APF) medium (i.e. APF media 1, APF media 2 or CD Hybridoma medium (Gibco) supplemented with cholesterol (1× Invitrogen Cholesterol Lipid Concentrate)) supplemented with various concentrations of N-acetylcysteine (NAC) and viable cell density during exponential growth phase was used to calculate average cell doubling time as described in Example 1.

[6] = tested on: NS0 Cell Line 2 (expressing BAK502G9, an anti-IL-13 antibody); test: Cell doubling time of NS0 Cell Line 2 during cell expansion with NAC-supplemented medium
Excerpt: as §1, §3
NS0 cells (i.e. NS0 Cell Line 2) expressing a monoclonal antibody (i.e. BAK502G9, an anti-IL-13 antibody) were cultured in animal-protein free (APF) medium (i.e. APF media 1, APF media 2 or CD Hybridoma medium (Gibco) supplemented with cholesterol (1× Invitrogen Cholesterol Lipid Concentrate)). The cells used in the vial thaw studies described in Example 2 were split into the same media (APF media 1, APF media 2 or CD Hybridoma medium+cholesterol) supplemented with various concentrations of N-acetylcysteine and allowed to recover in subsequent passages until a consistent doubling time from passage to passage was achieved. Viable cell density during exponential growth phase after recovery was used to calculate average cell doubling time as described in Example 1.

[7] = vial thaw, 0.5 mM to 1.5 mM NAC, APF medium 2
[8] = vial thaw, about 1.5 mM to about 2.5 mM NAC, APF media 1 and 2, vs control medium
[9] = during expansion, about 1.5 mM to about 2.5 mM NAC, APF media 1 and 2
[10] = vial thaw, about 0.5 mM to about 2.5 mM NAC, three media, vs control medium
[11] = during expansion, about 0.5 mM to about 2.5 mM NAC, three media

Structure (SMILES): CC(=O)N[C@@H](CS)C(=O)O [NAC, (2R) -2-acetamido-3-sulfanylpropanoic acid]
- cell doubling time at vial thaw (NS0 Null Cell Line [1]; APF media 2, 0.5 mM NAC): 36.8 h
- cell doubling time at vial thaw (NS0 Null Cell Line [1]; APF media 2, 1.0 mM NAC): 38.4 h
- cell doubling time at vial thaw (NS0 Null Cell Line [1]; APF media 2, 1.5 mM NAC): 57.9 h
- cell growth (NS0 Null Cell Line [1]; [7]): increased
- cell viability (NS0 Null Cell Line [1]; [7]): improved
- average cell doubling time at vial thaw ([2]; APF media 1, 1.5 mM NAC): 55.6 h
- average cell doubling time at vial thaw ([2]; APF media 1, 2.0 mM NAC): 48.4 h
- average cell doubling time at vial thaw ([2]; APF media 1, 2.5 mM NAC): 53.9 h
- cell doubling time at vial thaw ([2]; APF media 2, 1.5 mM NAC): 47.5 h
- cell doubling time at vial thaw ([2]; APF media 2, 2.0 mM NAC): 56.9 h
- cell doubling time at vial thaw ([2]; APF media 2, 2.5 mM NAC): 47.7 h
- cell growth [2, 8]: increases
- cell viability [2, 8]: increases
- Average Doubling Time (NS0 Null Cell Line [3]; 0.5 mM NAC): 26.4 h
- Average Doubling Time (NS0 Null Cell Line [3]; 1.0 mM NAC): 26.4 h
- Average Doubling Time (NS0 Null Cell Line [3]; 1.5 mM NAC): 26.2 h
- cell growth (NS0 Null Cell Line [3]; during expansion, 0.5 mM to 1.5 mM NAC, APF medium 2): increased
- cell viability (NS0 Null Cell Line [3]; during expansion, about 0.5 mM to about 2.0 mM NAC, statement covers three NS0 cell lines in three media): increased
- Average Doubling Time ([4]; APF Medium 1, during expansion, 1.5 mM NAC, 0.0 mM control 47.0): 42.3 h
- Average Doubling Time ([4]; APF Medium 1, during expansion, 2.0 mM NAC, 0.0 mM control 47.0): 46.1 h
- Average Doubling Time ([4]; APF Medium 1, during expansion, 2.5 mM NAC, 0.0 mM control 47.0): 63.6 h
- Average Doubling Time ([4]; APF Medium 2, during expansion, 1.5 mM NAC, 0.0 mM control 44.3): 34.8 h
- Average Doubling Time ([4]; APF Medium 2, during expansion, 2.0 mM NAC, 0.0 mM control 44.3): 34.6 h
- Average Doubling Time ([4]; APF Medium 2, during expansion, 2.5 mM NAC, 0.0 mM control 44.3): 34.8 h
- cell growth [4, 9]: increases
- cell viability [4, 9]: increases
- average cell doubling time at vial thaw ([5]; APF media 1, 0.5 mM NAC, control medium 44.6 hours): 39.6 h
- average cell doubling time at vial thaw ([5]; APF media 1, 1.0 mM NAC, control medium 44.6 hours): 41.6 h
- average cell doubling time at vial thaw ([5]; APF media 1, 2.5 mM NAC, control medium 44.6 hours): 37.5 h
- average cell doubling time at vial thaw ([5]; APF media 2, 0.5 mM NAC, control medium 77.0 hours): 57.7 h
- average cell doubling time at vial thaw ([5]; APF media 2, 1.0 mM NAC, control medium 77.0 hours): 37.0 h
- average cell doubling time at vial thaw ([5]; APF media 2, 2.0 mM NAC, control medium 77.0 hours): 39.7 h
- average cell doubling time at vial thaw ([5]; CD Hybridoma medium (Gibco) + 1x Cholesterol Lipid Concentrate, 0.5 mM NAC, control medium 35.5 hours): 34.7 h
- average cell doubling time at vial thaw ([5]; CD Hybridoma medium (Gibco) + 1x Cholesterol Lipid Concentrate, 1.0 mM NAC, control medium 35.5 hours): 30.6 h
- average cell doubling time at vial thaw ([5]; CD Hybridoma medium (Gibco) + 1x Cholesterol Lipid Concentrate, 2.0 mM NAC, control medium 35.5 hours): 30.9 h
- cell growth [5, 10]: increases
- cell viability [5, 10]: increases
- Average Doubling Time ([6]; APF Medium 1, during expansion, 0.5 mM NAC, 0.0 mM control 41.7): 35.4 h
- Average Doubling Time ([6]; APF Medium 1, during expansion, 1.0 mM NAC, 0.0 mM control 41.7): 31.2 h
- Average Doubling Time ([6]; APF Medium 1, during expansion, 2.5 mM NAC, 0.0 mM control 41.7): 31.2 h
- Average Doubling Time ([6]; APF Medium 2, during expansion, 0.5 mM NAC, 0.0 mM control 38.1): 30.2 h
- Average Doubling Time ([6]; APF Medium 2, during expansion, 1.0 mM NAC, 0.0 mM control 38.1): 28.8 h
- Average Doubling Time ([6]; APF Medium 2, during expansion, 2.0 mM NAC, 0.0 mM control 38.1): 31.5 h
- Average Doubling Time ([6]; Invitrogen CD Hybridoma Medium supplemented with cholesterol, during expansion, 0.5 mM NAC, 0.0 mM control 40.7): 39.7 h
- Average Doubling Time ([6]; Invitrogen CD Hybridoma Medium supplemented with cholesterol, during expansion, 1.0 mM NAC, 0.0 mM control 40.7): 37.5 h
- Average Doubling Time ([6]; Invitrogen CD Hybridoma Medium supplemented with cholesterol, during expansion, 2.0 mM NAC, 0.0 mM control 40.7): 35.7 h
- cell growth [6, 11]: increases
- cell viability [6, 11]: increases

Reference: US11555175B2, “Cell culture methods and media comprising N-acetylcysteine” (Medimmune, LLC, priority 2014, dated 2023)
